The results in this text go back to patent US20140011700A1 (Bristol-Myers Squibb Company, published 2014).

Among the test systems are A/WSN/33 N309T; A/WSN/33 N309K; A/WSN/33 Y289H; A/WSN/33 Y52H.
Common to all, as to format: cell-based, Influenza A

For orientation: EC50 means the concentration needed to bring the measured effect to its halfway point. Low values mean higher potency in that assay, high ones lower potency in that assay. For the compound `COc1ccccc1-c1noc(C)c1C(=O)N1CCN(c2ccc([N+](=O)[O-])cc2Cl)CC1` [Compound B], the 50% effective concentration (EC50) in the experiment with A/WSN/33 N309T is 3.5 µM; with A/WSN/33 N309K, more than 20 µM; in the experiment with A/WSN/33 Y289H, more than 20 µM; in the experiment on A/WSN/33 Y52H, 8.15 µM.
On to `Cc1cc(Br)cnc1N1CCN(C(=O)c2c(-c3ccccc3Cl)noc2C)CC1` [Compound D], for which the EC50 with A/WSN/33 N309T, with A/WSN/33 N309K, in the experiment on A/WSN/33 Y289H and with A/WSN/33 Y52H was more than 20 µM each time.
